According to patent publication US5504190A, “Equimolar multiple oligomer mixtures, especially oligopeptide mixtures” (priority 1994, dated 1996):
In brackets after ≈: the same amount, converted by molar mass. Read-outs that look alike come from different tables or passages of the source.

How the values were obtained:
[1] = tested on: Escherichia coli (ATCC 25922); assay: antimicrobial assay, growth inhibition of E. coli (OD 620 nm); format: cell-based; conditions: Tables 1 and 2
Procedure: (§1) Escherichia coli (ATCC 25922) was used as Gram-negative (-) and Staphylococcus aureus (ATCC 29213) as Gram-positive (+) bacteria. Bacteria were grown overnight (about 18 hours) at 37° C. in Mueller-Hinton (MH) broth. This culture was reinoculated and incubated at 37° C. to reach the exponential phase of bacteria growth; i.e., a final bacterial suspension containing about 10^5 to 5×10^5 colony-forming units (CFU)/ml. The concentration of cells was established by plating 100 μl of different dilutions of the culture solution (e.g., 10^-2, 10^-3 and 10^-4) onto solid agar plates. Following an overnight (about 18 hours) incubation at 37° C., the CFU thus formed were counted on each agar plate.
(§2) 96-Well tissue culture plates were utilized, with eight wells per plate containing only medium as control blanks, whereas eight other wells contained medium plus cells as a positive growth control. These controls were used to detect possible medium contamination and to provide a measure of uninhibited growth of the microorganisms.
(§3) For initial screening studies, oligopeptide sets were added to the bacterial suspension to reach a final concentration of 1 mg/ml.
(§4) The plates were incubated overnight (about 18 hours) at 37° C., and the optical density (OD) determined at 620 nm after different times of incubation.

[2] = tested on: Staphylococcus aureus (ATCC 29213); assay: microbe, parasite or virus in culture
Procedure: as §1, §2, §3, §4

[3] = tested on: Candida albicans ATCC 10231; assay: antifungal assay, growth inhibition of C. albicans (OD 620 nm); format: cell-based
Procedure: Antifungal studies were carried out Candida albicans ATCC 10231 as the target microbe. The yeast culture was spread onto YM agar plates and incubated at 30° C. for 48 hours. Three colonies of this culture (about 1 mm in diameter each) were then inoculated in 5 ml of 1 X PBS solution. The suspension was vortexed and diluted 10-fold in YM broth, for an approximate final concentration of 10^5 to 5×10^5 CFU (colony forming units)/ml.
Actual concentrations of yeast cultures were determined by plating 100 μl of different solutions of the culture solution (10^-3, 10^-4 and 10^-5) onto solid YM agar plates. After 48 hours of incubation at 30° C., CFU formed were counted from each plate.
The assays were carried out in 96-well tissue culture plates. Eight wells containing only medium of YM broth served as negative controls, whereas eight wells containing medium and yeast culture served as positive controls. These controls were used to detect possible medium contamination and to provide a measure of uninhibited growth of the yeast.
For screening studies, oligopeptide mixtures were added to the yeast suspension in duplicates to reach a final concentration of 1.5 mg/ml. […] The plates were incubated over a period of 48 hours at 30° C., and the optical density (OD) at 24 and 48 hours was determined at 620 nm.

[4] = 7-mer studies, Tables 5 and 6 and parent 6-mer
[5] = Staphylococcus aureus, ATCC29213

Ac-FRWWHR-NH2 [FRWWHR]
IC-50 [1]: 13 µg/mL | MIC [1]: 16 to 32 mg/L | IC-50 ([2]; Tables 3 and 4): 18 µg/mL | MIC ([2]; Tables 3 and 4): 16 to 32 mg/L

Ac-RRWWRH-NH2 [RRWWRH]
IC-50 ([3]; Table 9): 30.1 µg/mL | MIC ([3]; Table 9): 40 to 80 mg/L

Ac-RRRWWRF-NH2 [RRRWWRF]
IC-50 [2, 4]: 8 µg/mL | MIC [2, 4]: 8 to 16 mg/L

Ac-CRRWWRF-NH2 [CRRWWRF]
IC-50 [2, 4]: 6.3 µg/mL | MIC [2, 4]: 8 to 16 mg/L

C[C@@H]1[C@H](O)[C@@H](C)/C=C/C=C/C=C/C=C/C=C/C=C/C=C/[C@H](O[C@@H]2O[C@H](C)[C@@H](O)[C@H](N)[C@@H]2O)C[C@@H]2O[C@](O)(C[C@@H](O)C[C@@H](O)[C@H](O)CC[C@@H](O)C[C@@H](O)CC(=O)O[C@H]1C)C[C@H](O)[C@H]2C(=O)O [Amphotericin B, reference compound]
IC50 ([3]; Candida albicans, ATCC10231, Table 9): 0.5 mg/L (≈ 0.541 µM) | MIC ([3]; Candida albicans, ATCC10231, Table 9, read-out: MIC): 2 to 4 mg/L (≈ 2.16 to 4.33 µM)

Ac-FRWLLW-NH2 [FRWLLW]
IC-50 ([2]; Tables 3 and 4): 14 µg/mL | MIC ([2]; Tables 3 and 4): 12 to 24 mg/L

Ac-RRWWRFK-NH2 [RRWWRFK]
IC-50 ([3]; Table 9): 46 µg/mL | MIC ([3]; Table 9): 50 to 62 mg/L

Ac-RRWWRFL-NH2 [RRWWRFL]
IC-50 [2, 4]: 5.9 µg/mL | MIC [2, 4]: 8 to 16 mg/L

Ac-RRWWRFY-NH2 [RRWWRFY]
IC-50 [2, 4]: 7.6 µg/mL | MIC [2, 4]: 8 to 16 mg/L

Ac-RRWWRF-NH2 [RRWWRF, Ac-Arg-Arg-Trp-Trp-Arg-PheNH2]
IC-50 [2, 4]: 8.7 µg/mL | MIC ([2]; ATCC 29213, 18 h): 8 to 16 mg/L | IC-50 ([2]; Tables 3 and 4): 5.5 µg/mL | MIC ([2]; Tables 3 and 4): 6 to 9 mg/L

Ac-FRWWHK-NH2 [FRWWHK]
IC-50 [1]: 15 µg/mL | MIC [1]: 16 to 32 mg/L | IC-50 ([2]; Tables 3 and 4): 30 µg/mL | MIC ([2]; Tables 3 and 4): 31 to 62 mg/L

Ac-RRWWMT-NH2 [RRWWMT]
IC-50 [1]: 18 µg/mL | MIC [1]: 20 to 32 mg/L

C[C@@H]1[C@H](O)[C@@H](C)/C=C/C=C/CC/C=C/C=C/C=C/C=C/[C@H](O[C@@H]2O[C@H](C)[C@@H](O)[C@H](N)[C@@H]2O)C[C@@H]2O[C@](O)(C[C@@H](O)[C@H](O)CC[C@@H](O)C[C@@H](O)C[C@@H](O)CC(=O)O[C@H]1C)C[C@H](O)[C@H]2C(=O)O [Nystatin, reference compound]
MIC ([3]; Candida albicans, ATCC10231): 2 to 4 mg/L (≈ 2.16 to 4.32 µM)

Ac-RRWWCR-NH2 [RRWWCR, Ac-Arg-Arg-Trp-Trp-Cys-Arg-NH2]
MIC ([2]; ATCC 29213, 18 h): 3.906 mg/L

CC1(C)S[C@@H]2[C@H](NC(=O)[C@H](N)c3ccccc3)C(=O)N2[C@H]1C(=O)O [Ampicillin, reference compound]
MIC [2, 5]: 4 mg/L (≈ 11.4 µM)

Ac-RRWWMR-NH2 [RRWWMR]
IC-50 [1]: 9 µg/mL | MIC [1]: 10 to 16 mg/L

Ac-FRWLLV-NH2 [FRWLLV]
IC-50 [1]: 24 µg/mL | MIC [1]: 40 to 80 mg/L

Ac-FRWWHL-NH2 [FRWWHL]
IC-50 [1]: 31 µg/mL | MIC [1]: 62 to 125 mg/L | IC-50 ([2]; Tables 3 and 4): 9.3 µg/mL | MIC ([2]; Tables 3 and 4): 16 to 32 mg/L

Neomycin [reference compound]
MIC ([2]; Table 7, separate study): 1 mg/L

Ac-RRWWMW-NH2 [RRWWMW]
IC-50 [1]: 15 µg/mL | MIC [1]: 16 to 32 mg/L

Ac-RRWWMP-NH2 [RRWWMP]
IC-50 [1]: 26 µg/mL | MIC [1]: 31 to 62 mg/L

Ac-FRWWHF-NH2 [FRWWHF]
IC-50 [1]: 30 µg/mL | MIC [1]: 31 to 62 mg/L | IC-50 ([2]; Tables 3 and 4): 16 µg/mL | MIC ([2]; Tables 3 and 4): 31 to 62 mg/L

Ac-RRWWMS-NH2 [RRWWMS]
IC-50 [1]: 17 µg/mL | MIC [1]: 20 to 32 mg/L

Ac-RRWWMC-NH2 [RRWWMC]
IC-50 [1]: 12 µg/mL | MIC [1]: 31 to 62 mg/L

Ac-RRWWMN-NH2 [RRWWMN]
IC-50 [1]: 25 µg/mL | MIC [1]: 31 to 62 mg/L

Ac-RRWWRI-NH2 [RRWWRI]
IC-50 ([2]; Tables 3 and 4): 12 µg/mL | MIC ([2]; Tables 3 and 4): 12 to 23 mg/L

Ac-RRWWCT-NH2 [RRWWCT]
IC-50 ([2]; Tables 3 and 4): 7.9 µg/mL | MIC ([2]; Tables 3 and 4): 4.9 to 10 mg/L

Ac-FRRWWRF-NH2 [FRRWWRF]
IC-50 [2, 4]: 5.9 µg/mL | MIC [2, 4]: 8 to 16 mg/L

Ac-RRWWRL-NH2 [RRWWRL]
IC-50 ([2]; Tables 3 and 4): 12 µg/mL | MIC ([2]; Tables 3 and 4): 13 to 26 mg/L

Ac-FRWLLL-NH2 [FRWLLL]
IC-50 ([2]; Tables 3 and 4): 18 µg/mL | MIC ([2]; Tables 3 and 4): 16 to 31 mg/L

Ac-RRWWRFI-NH2 [RRWWRFI]
IC-50 [2, 4]: 6.9 µg/mL | MIC [2, 4]: 8 to 16 mg/L

Ac-RRWWCV-NH2 [RRWWCV]
IC-50 ([2]; Tables 3 and 4): 4.9 µg/mL | MIC ([2]; Tables 3 and 4): 3.8 to 7.7 mg/L

Ac-RRWWMA-NH2 [RRWWMA]
IC-50 [1]: 18 µg/mL | MIC [1]: 20 to 32 mg/L

CN(C)[C@@H]1C(O)=C(C(N)=O)C(=O)[C@@]2(O)C(O)=C3C(=O)c4c(O)cccc4[C@@](C)(O)[C@H]3C[C@@H]12 [Tetracycline, reference compound]
MIC [2, 5]: 0.5 mg/L (≈ 1.13 µM)

Ac-RRWWRC-NH2 [RRWWRC]
IC-50 ([2]; Tables 3 and 4): 8.2 µg/mL | MIC ([2]; Tables 3 and 4): 10 to 19 mg/L

Ac-FRWWHI-NH2 [FRWWHI]
IC-50 ([2]; Tables 3 and 4): 21 µg/mL | MIC ([2]; Tables 3 and 4): 31 to 62 mg/L

Ac-KRRWWRF-NH2 [KRRWWRF]
IC-50 ([3]; Table 9): 40 µg/mL | MIC ([3]; Table 9): 45 to 62 mg/L

Gentamicin C [reference compound]
MIC ([2]; Table 7, separate study): 0.5 mg/L

Ac-RRWWMK-NH2 [RRWWMK]
IC-50 [1]: 14 µg/mL | MIC [1]: 16 to 32 mg/L

Ac-RRWWCVR-NH2 [RRWWCVR]
IC-50 ([3]; Table 9): 50 µg/mL | MIC ([3]; Table 9): 50 to 62 mg/L

Ac-RRWWMG-NH2 [RRWWMG]
IC-50 [1]: 9 µg/mL | MIC [1]: 10 to 16 mg/L

Ac-RRWWMM-NH2 [RRWWMM]
IC-50 [1]: 18 µg/mL | MIC [1]: 20 to 32 mg/L

Ac-RRWWMH-NH2 [RRWWMH]
IC-50 [1]: 24 µg/mL | MIC [1]: 31 to 62 mg/L

Ac-RRWWMY-NH2 [RRWWMY]
IC-50 [1]: 15 µg/mL | MIC [1]: 16 to 32 mg/L

Ac-RRWWMF-NH2 [RRWWMF]
IC-50 [1]: 18 µg/mL | MIC [1]: 20 to 32 mg/L

Ac-RRWWRFC-NH2 [RRWWRFC]
IC-50 [2, 4]: 6.2 µg/mL | MIC [2, 4]: 8 to 16 mg/L

Ac-LRRWWRF-NH2 [LRRWWRF]
IC-50 [2, 4]: 6.1 µg/mL | MIC [2, 4]: 8 to 16 mg/L

Bacitracin A [reference compound]
MIC ([2]; Table 7, separate study): 16 mg/L

Ac-FRWLLC-NH2 [FRWLLC]
IC-50 ([2]; Tables 3 and 4): 15 µg/mL | MIC ([2]; Tables 3 and 4): 13 to 26 mg/L

Ac-RRWWMI-NH2 [RRWWMI]
IC-50 [1]: 12 µg/mL | MIC [1]: 16 to 32 mg/L

Ac-RRWWMV-NH2 [RRWWMV]
IC-50 [1]: 15 µg/mL | MIC [1]: 16 to 32 mg/L

CC[C@H]1OC(=O)[C@H](C)[C@@H](O[C@H]2C[C@@](C)(OC)[C@@H](O)[C@H](C)O2)[C@H](C)[C@@H](O[C@@H]2O[C@H](C)C[C@H](N(C)C)[C@H]2O)[C@](C)(O)C[C@@H](C)C(=O)[C@H](C)[C@@H](O)[C@]1(C)O [Erythromycin, reference compound]
MIC [2, 5]: 0.5 mg/L (≈ 0.681 µM)

Ac-RRWWCS-NH2 [RRWWCS]
IC-50 ([2]; Tables 3 and 4): 5.9 µg/mL | MIC ([2]; Tables 3 and 4): 7 to 14 mg/L

Ac-RRWWRFR-NH2 [RRWWRFR]
IC-50 [2, 4]: 7.9 µg/mL | MIC [2, 4]: 8 to 16 mg/L | IC-50 ([3]; Table 9): 45 µg/mL | MIC ([3]; Table 9): 50 to 62 mg/L

Ac-RRWWRA-NH2 [RRWWRA]
IC-50 ([2]; Tables 3 and 4): 14 µg/mL | MIC ([2]; Tables 3 and 4): 18 to 36 mg/L

Ac-FRWWHW-NH2 [FRWWHW]
IC-50 [1]: 27 µg/mL | MIC [1]: 62 to 125 mg/L | IC-50 ([2]; Tables 3 and 4): 23 µg/mL | MIC ([2]; Tables 3 and 4): 31 to 62 mg/L

Ac-FRWLLH-NH2 [FRWLLH]
IC-50 [1]: 17 µg/mL | MIC [1]: 20 to 40 mg/L

CC1(C)S[C@@H]2[C@H](NC(=O)Cc3ccccc3)C(=O)N2[C@H]1C(=O)O [Penicillin G, reference compound]
MIC ([2]; Table 7, separate study): 32 mg/L (≈ 95.7 µM)

Ac-RRWWML-NH2 [RRWWML]
IC-50 [1]: 15 µg/mL | MIC [1]: 16 to 32 mg/L

Ac-RRWWRFV-NH2 [RRWWRFV]
IC-50 [2, 4]: 7.9 µg/mL | MIC [2, 4]: 8 to 16 mg/L

Ac-FRWWHH-NH2 [FRWWHH]
IC-50 [1]: 31 µg/mL | MIC [1]: 34 to 62 mg/L
